Experiments:
Format in all cases: cell-based, human
[1] = tested on: breast cancer (MCF-7) cell line; assay: MTT cytotoxicity assay, MCF-7; details: ± SD, 1.56-200 µM
Description: (§1) DMSO solutions (10^−3 M) of the complexes (1–4) were subjected to molar conductance measurements at room temperature over 48 h, and the observed values are presented in Table S8. […] A comparative cytotoxicity assay explored the differences between nickel(II) complexes derived from thiosemicarbazone and dithiocarbazate ligands. Additionally, we investigated the influence of the coligands triphenylphosphine and pyridine in the complexes. The effectiveness of the compounds in inhibiting cell viability was concentration- and time-dependent. The analysis involved varying concentrations between 1.56 and 200 µM over 48 h using an MTT assay, with untreated cells serving as the control. Table 5 presents the IC50 values for the free ligands, synthesized complexes, and cisplatin, which served as reference compounds in this study.
(§2) The cytotoxic activity of the synthesized compounds was evaluated against human cell lines, including breast cancer (MCF–7), cisplatin-resistant ovarian cancer (A2780cis), lung cancer (A549), and nontumor lung cells (MRC–5). The A549 and MRC-5 cell lines were cultured in Dulbecco’s Modified Eagle’s Medium (DMEM), while the MCF-7 and A2780cis cell lines were cultured in Roswell Park Memorial Institute (RPMI–1640). Both cultures were supplemented with 10% fetal bovine serum (FBS), penicillin (100 IU/mL), streptomycin ([…]), and L-glutamine (2 mM). The cells were grown as monolayers in disposable 25 cm^2 flasks and incubated at 37 °C in a humidified atmosphere containing 5% CO2.
(§3) The cytotoxicity activity of the compounds was assessed using a colorimetric MTT (3-(4,5-dimethylthiazol-2-yl)-2,5-diphenyltetrazolium bromide) assay. The cells were trypsinized, counted, and adjusted to the appropriate concentration and were seeded into 96-well plates at a density of 1.5 × 10^4 cells/well. […] The absorbance was measured at 570 nm using a Varioskan LUX Multimode Microplate Reader (VL000D0, Waltham, MA 02451, USA). […] The half-maximal inhibitory concentration (IC50) values were determined from dose–response curves using GraphPad Prism version 8 software.

[2] = tested on: cisplatin-resistant ovarian cancer (A2780cis) cell line; assay: MTT cytotoxicity assay, A2780cis; details: 48 h, ± SD, 1.56-200 µM
Description: as §1, §2, §3

[3] = tested on: lung cancer (A549) cell line; assay: MTT cytotoxicity assay, A549; details: ± SD, 1.56-200 µM
Description: as §1, §2, §3

[4] = tested on: nontumoral lung (MRC-5) cell line; assay: MTT cytotoxicity assay, MRC-5; details: ± SD, 1.56-200 µM, nontumoral cells
Description: as §1, §2, §3

Row | Compound | IC50 ([1]; 48 h) | IC50 [2] | IC50 ([3]; 48 h) | IC50 ([4]; 48 h) | IC50 ([1]; Homo sapiens, MCF7, 48 h) | IC50 ([2]; Homo sapiens, A2780cis) | IC50 ([3]; Homo sapiens, A549, 48 h) | IC50 ([4]; Homo sapiens, MRC5, 48 h)
1 | N.N.[Cl][Pt][Cl] [Cisplatin, cisplatin, reference compound] | 14 µM | 37 µM | 11.5 µM | 29.1 µM |  |  |  | 
2 | O=C(C/C(=N/NC(=S)Nc1ccccc1)C(F)(F)F)c1cccs1 [H2L^1, thenoyltrifluoroacetone–4–phenyl–3–thiosemicarbazone] |  |  |  |  | > 100 µM | 42.8 µM | 51.4 µM | > 100 µM
3 | O=C(C/C(=N/NC(=S)SCc1ccccc1)C(F)(F)F)c1cccs1 [H2L^2, thenoyltrifluoroacetone–S–benzyldithiocarbazate] |  |  |  |  | > 100 µM | 78.9 µM | > 100 µM | > 100 µM

Reference: publication PMC12430362, “Comparative Study of Ni(II) Complexes with Dithiocarbazate- and Thiosemicarbazone-Based Ligands: Synthesis, Crystal Structures, and Anticancer Activity” (Molecules, 2025)
